pIC50: −log10 of the molar value. {3CholTEG} = cholesteryl-TEG conjugate
Assays:
[1] = tested on: Klebsiella pneumoniae ATCC BAA-1705; assay: Growth assays / MIC / viability (OD600, CFU) with meropenem; assay type: cell-based
Protocol: Cultures were incubated at 37° C. with continuous shaking and the optical density OD600 was recorded every 30 minutes using Ultrospec 10 (biochrom). Viability was tested by serial dilutions (1:100) of the bacterial suspensions and spots were plated on LB plates. The plates were incubated at 37° C. and on the next day CFU was counted to determine culture viability.

Klebsiella pneumoniae = assay: Lung ex-vivo infection model (mouse lung punches, CFU); assay type: cell-based; settings: sub-toxic meropenem alone or with DNAzyme/scramble; 24 hours
Protocol: Lungs were harvested from 5-10 mice (C57BL/6, 6-8 weeks old) and placed in petri dishes containing DMEM 5% FCS. The tissue was divided into circular pieces 3 mm in diameter with a biopsy punch and transferred to poly-propanol tubes with 3 ml DMEM. DMEM was applied with meropenem and DNAzymes, as indicated. To each respective tube 10 μl of mid-logarithmic Klebsiella pneumoniae culture was added—with three technical repeats for each condition. The plates were incubated at 37° C. for approximately 1 days (24 hours), washed twice with PBS.
For CFU of bacteria infecting ex vivo tissue culture: individual punches or their growth media were collected, Punches were resuspended in 1 ml PBS (Biological Industries), and free-living bacteria were pelleted and resuspended in PBS at the same volume. Samples were thoroughly vortexed (5 min). The samples were then mildly manually crushed using 1.5 ml pestle. In all cases, to determine the number of viable cells, samples were serially diluted in PBS, plated on LB plates, and colonies were counted after incubation at 37° C. overnight.

[2] = tested on: Klebsiella pneumoniae (ATCC BAA-1705); assay: KP infected thigh muscle model in neutropenic mice; assay type: in vivo; settings: SC TID, 240 mg/kg meropenem alone or with KPC-337 16, 24 or 32 mg/kg
Protocol: Neutropenia induction: The experiments were performed on female ICR mice age 9-10 weeks. At day (−4) neutropenia induction was performed by cyclophosphamide intraperitoneal (IP) injection at 150 mg/kg and a volume of 10 mL/kg. At day (−1) neutropenia maintenance was performed by cyclophosphamide IP injection at 100 mg/kg and a volume of 10 mL/kg.
Bacterial suspension preparation: At day (−4) KP (ATCC® BAA-1705™) bacteria was streaked out from −80° C. glycerol stock onto LB medium and incubated at 37° C. for 20 hours and then stored at 2-8° C. At day (−1) single colonies of the KP (ATCC® BAA-1705™ bacteria) were picked by using an inoculation loop (Greiner, 731175) and suspended in 20 mL Tryptic Soy broth (TSB) (Hylabs, BIO-MO11) in Erlenmeyer and incubated at 37° C. overnight (=starter) with shaking at 180 rpm. In the morning of dosing day, bacterial starter was diluted in fresh TSB (total of 20 mL) and incubated for about 1-3 hours at 37° C. […] Bacterial suspension concentration was determined by McFarland (Densicheck plus, Biomerieux) and diluted in sterile PBS to a concentration of 2.2×10^7 CFU/mL. […]
Bacterial burden determination: Homogenate samples dilutions were plated on LB agar plates at various dilutions to determine the colony forming units (CFUs). Plates were incubated overnight (at 37° C.), and bacterial burden was calculated and expressed as CFUs/gram of tissue.

[3] = tested on: Klebsiella pneumoniae strain ATCC BAA-1705; assay: Galleria mellonella virulence assay (larvae viability); assay type: in vivo; settings: infected G. mellonella larvae
Protocol: Larvae virulence experiments were performed in the facilities of Pharmaseed LTD (Ness Ziona, Israel). G. larvae were obtained from BioSystems Technologies (Exeter, UK) and stored in the shipment boxes at 15° C. for two weeks or at room temperature for immediate use with no requirement of food. Larvae were randomly selected from a large batch for an approximate weight of 250±25 mg. Larvae were separated from sawdust and selected for plumped, lighter colored worms. Darker colored, dehydrated worms, were discarded. Each treatment group (20 larvae per group) contained 10 larvae placed in a 10 cm empty Petri dish (2 dishes per treatment group), on a filter paper.
Bacterial inoculums were prepared from cultures grown overnight at 37° C. in TSB medium (HyLabs, Israel) and washed with sterile 1×PBS. Bacterial suspension concentration was determined by McFarland (Densicheck plus, Biomerieux) and diluted in sterile PBS to receive 10^9 CFU/mL. Serial dilutions of the bacterial suspensions were made and spots were plated on blood agar plates. The plates were incubated at 37° C. and on the next day CFU was counted in order to determine final injected bacterial concentrations.
Each larva was initially injected with 5×10^5 cells into the proleg. A second injection to the proleg was done with meropenem (10 μg/g), meropenem+DNAzyme (8.52 μg/g) or sterile PBS. […]

β-lactamase = settings: DNAzyme 1.25 M (so in the source) with 128 μg/ml meropenem, 1 h; vs untreated control
Protocol: Bacterial strains were streaked from frozen LB+glycerol stocks onto LB agar plates and incubate for 24 hours at 37° C. Single colonies were grown overnight at 37° C. in 3 ml of LB. Cultures were diluted 1:1000 in 2 ml LB supplemented with 128 μg/ml meropenem and DNAzyme were added to a final concentration of 1.25 M. Cultures were incubated at 37° C. with continuous shaking for 1 h. Measurement of the β-lactamase activity assay was done using colorimetric kit (abcam), according to the manufacture's protocol.

HT-29 cells = assay type: cell-based; settings: HT-29 human colorectal adenocarcinoma cells, 72 hours; read-out: IC50 of toxicity
Protocol: HT-29 cells (ATCC) were seeded in 24-well plates at 200,000 cells per well. DNAzyme were added to the medium at different concentrations. After 72 hours, PrestoBlue reagent (A13262, Life Technologies Ltd.) was added as a cell viability indicator.

bla-KPC RNA transcripts = assay: Bla-KPC quantification from bacterial cells (qPCR); assay type: cell-based; settings: DNAzyme 1.25 μM with sub-toxic meropenem (128 μg/ml), 20 minutes; vs untreated control
Protocol: Total RNA was extracted from each sample using RNeasy Mini Kit (Qiagen), according to the manufacturer's instructions. The concentration, purity, and integrity of total RNA was determined using NanoDrop and gel electrophoresis. cDNA synthesis was performed using iScript™ cDNA synthesis (Bio-Rad) according to the manufacturer's instructions. Equal amounts of total RNA (1000 ng/20 μL) were reverse-transcribed in all samples. Reactions were incubated in a CFX96 Touch Real-Time PCR detection system (Bio-Rad) by the following program: 25° C. for 5 minutes, 46° C. for 20 minutes, 95° C. for 60 seconds. Bla-KPC expression was determined by qPCR, with primers designed using NCBI primer-BLAST. qPCR analysis was performed using the iTaq Universal SYBR Green Supermix (Bio-Rad) according to the manufacturer's instructions, in a CFX96 system by the following program: 95° C. for 3 minutes, 39 cycles of 95° C. for 10 seconds and 55° C. for 30 seconds. Melt curves were generated for each sample by heating PCR amplicons from 65° C. to 95° C. with a gradual increase of 0.5° C./0.5 s.

Row | Compound | MIC ([1]; Klebsiella pneumoniae, ATCCBAA1705, without DNAzyme) [µg/mL] | reduction of capacity of the bacteria to infect and colonize lung tissue (bacterial load in the tissue) (Klebsiella pneumoniae) | reduction of the free-living cells that remained in the growth media (Klebsiella pneumoniae) | reduction of bacterial load in the infection site [2] | reduction of the viability of the larvae ([3]; sub-toxic meropenem 10 μg/g alone or with scramble) [%] | growth inhibitory effect (optical density) ([1]; combination of subtoxic meropenem concentration and DNAzyme) | effect on viability of the bacterial cells (cell counts over time) ([1]; combined treatment of meropenem and DNAzyme) | reduction of MIC levels ([1]; meropenem MIC with vs without DNAzyme) | MIC of meropenem ([1]; with addition of DNAzyme KPC-337) [µg/mL] | reduction of β-lactamase activity (β-lactamase) [%] | pIC50 (HT-29 cells) | reduction of transcript levels of bla-KPC (bla-KPC RNA transcripts) | larvae viability ([3]; sub-toxic meropenem 10 μg/g with DNAzyme (8.52 μg/g)) [%]
1 | C[C@@H](O)[C@H]1C(=O)N2C(C(=O)O)=C(S[C@@H]3CN[C@H](C(=O)N(C)C)C3)[C@H](C)[C@H]12 [meropenem, reference compound] | 256 | did not reduced the bacterial load | did not reduced the bacterial load | slightly reduced the bacterial load | 40 | – | – | – | – | – | – | – | –
2 | GCCTGTTGggctagctacaacgaCAGATATTT/3CholTEG/ (GCCTGTTGGGCTAGCTACAACGACAGATATTT; 3' {3CholTEG}, sugars by position and backbone not given here) [KPC-337, DNAzyme targeting bla carbapenemase of Klebsiella pneumoniae] | – | 1.5-2 fold | 1-1.5 fold change | 2-3 log fold | – | complete arrest of growth | bactericidal | two fold | 128 | 70 | 4.70 | two fold | 100
